Data: the NIST ThermoML archive (doi:10.1021/je049546h)
± gives the expanded uncertainty stated by the source.

Columns and labels:
[1] = Liquid
[2] = xn = mol fraction of the nth substance listed; settings: for mass density: Other PVT measurement; for Critical density: closed cell phase equilibration

O=C=O [carbon dioxide]
Critical pressure ([1]; Direct measurement): 7360 ± 50 kPa | Critical temperature ([1]; Visual observation in a stirred cell): 304.2 ± 0.2 K

CCc1ccccc1 [ethylbenzene] + O=C=O
mass density ([2]; 303.2 K, Liquid, x1 = 0.0211): 709 ± 11 kg/m3 | mass density ([2]; 303.2 K, Liquid, x1 = 0.0384): 741 ± 10 kg/m3 | mass density ([2]; 303.2 K, Liquid, x1 = 0.0512): 762 ± 10 kg/m3 | mass density ([2]; 303.2 K, Liquid, x1 = 0.0637): 782 ± 10 kg/m3 | mass density ([2]; 303.2 K, Liquid, x1 = 0.0751): 790 ± 10 kg/m3 | mass density ([2]; 303.2 K, Liquid, x1 = 0.0998): 818 ± 10 kg/m3 | mass density ([2]; 308.2 K, Liquid, x1 = 0.0211): 665 ± 11 kg/m3 | mass density ([2]; 308.2 K, Liquid, x1 = 0.0384): 715 ± 10 kg/m3 | mass density ([2]; 308.2 K, Liquid, x1 = 0.0512): 735 ± 10 kg/m3 | mass density ([2]; 308.2 K, Liquid, x1 = 0.0637): 761 ± 10 kg/m3 | mass density ([2]; 308.2 K, Liquid, x1 = 0.0751): 769 ± 10 kg/m3 | mass density ([2]; 308.2 K, Liquid, x1 = 0.0998): 799 ± 10 kg/m3 | mass density ([2]; 313.2 K, Liquid, x1 = 0.0211): 590 ± 12 kg/m3 | mass density ([2]; 313.2 K, Liquid, x1 = 0.0384): 673 ± 11 kg/m3 | mass density ([2]; 313.2 K, Liquid, x1 = 0.0512): 702 ± 10 kg/m3 | mass density ([2]; 313.2 K, Liquid, x1 = 0.0637): 731 ± 10 kg/m3 | mass density ([2]; 313.2 K, Liquid, x1 = 0.0751): 748 ± 10 kg/m3 | mass density ([2]; 313.2 K, Liquid, x1 = 0.0998): 779 ± 10 kg/m3 | mass density ([2]; 318.2 K, Liquid, x1 = 0.0384): 633 ± 11 kg/m3 | mass density ([2]; 318.2 K, Liquid, x1 = 0.0512): 671 ± 10 kg/m3 | mass density ([2]; 318.2 K, Liquid, x1 = 0.0637): 703 ± 10 kg/m3 | mass density ([2]; 318.2 K, Liquid, x1 = 0.0751): 722 ± 10 kg/m3 | mass density ([2]; 318.2 K, Liquid, x1 = 0.0998): 760 ± 10 kg/m3 | mass density ([2]; 323.2 K, Liquid, x1 = 0.0384): 583 ± 11 kg/m3 | mass density ([2]; 323.2 K, Liquid, x1 = 0.0512): 630 ± 10 kg/m3 | mass density ([2]; 323.2 K, Liquid, x1 = 0.0637): 675 ± 10 kg/m3 | mass density ([2]; 323.2 K, Liquid, x1 = 0.0751): 697 ± 10 kg/m3 | mass density ([2]; 323.2 K, Liquid, x1 = 0.0998): 742 ± 10 kg/m3 | mass density ([2]; 328.2 K, Liquid, x1 = 0.0512): 603 ± 10 kg/m3 | mass density ([2]; 328.2 K, Liquid, x1 = 0.0637): 642 ± 10 kg/m3 | mass density ([2]; 328.2 K, Liquid, x1 = 0.0751): 672 ± 10 kg/m3 | mass density ([2]; 328.2 K, Liquid, x1 = 0.0998): 723 ± 10 kg/m3 | mass density ([2]; 333.2 K, Liquid, x1 = 0.0637): 607 ± 10 kg/m3 | mass density ([2]; 333.2 K, Liquid, x1 = 0.0751): 646 ± 10 kg/m3 | mass density ([2]; 333.2 K, Liquid, x1 = 0.0998): 706 ± 10 kg/m3 | Critical density ([2]; Liquid, x1 = 0.0225): 520 ± 16 kg/m3 | Critical density ([2]; Liquid, x1 = 0.0363): 545 ± 16 kg/m3 | Critical density ([2]; Liquid, x1 = 0.0488): 580 ± 17 kg/m3

C=Cc1ccccc1 [styrene] + O=C=O
mass density ([2]; 303.2 K, Liquid, x1 = 0.0225): 721 ± 11 kg/m3 | mass density ([2]; 303.2 K, Liquid, x1 = 0.0363): 755 ± 10 kg/m3 | mass density ([2]; 303.2 K, Liquid, x1 = 0.0488): 774 ± 10 kg/m3 | mass density ([2]; 303.2 K, Liquid, x1 = 0.0742): 805 ± 10 kg/m3 | mass density ([2]; 303.2 K, Liquid, x1 = 0.101): 831 ± 10 kg/m3 | mass density ([2]; 308.2 K, Liquid, x1 = 0.0225): 675 ± 11 kg/m3 | mass density ([2]; 308.2 K, Liquid, x1 = 0.0363): 721 ± 10 kg/m3 | mass density ([2]; 308.2 K, Liquid, x1 = 0.0488): 747 ± 10 kg/m3 | mass density ([2]; 308.2 K, Liquid, x1 = 0.0742): 781 ± 10 kg/m3 | mass density ([2]; 308.2 K, Liquid, x1 = 0.101): 813 ± 10 kg/m3 | mass density ([2]; 313.2 K, Liquid, x1 = 0.0225): 615 ± 12 kg/m3 | mass density ([2]; 313.2 K, Liquid, x1 = 0.0363): 683 ± 11 kg/m3 | mass density ([2]; 313.2 K, Liquid, x1 = 0.0488): 711 ± 10 kg/m3 | mass density ([2]; 313.2 K, Liquid, x1 = 0.0742): 758 ± 10 kg/m3 | mass density ([2]; 313.2 K, Liquid, x1 = 0.101): 794 ± 10 kg/m3 | mass density ([2]; 318.2 K, Liquid, x1 = 0.0225): 529 ± 12 kg/m3 | mass density ([2]; 318.2 K, Liquid, x1 = 0.0363): 635 ± 11 kg/m3 | mass density ([2]; 318.2 K, Liquid, x1 = 0.0488): 682 ± 10 kg/m3 | mass density ([2]; 318.2 K, Liquid, x1 = 0.0742): 734 ± 10 kg/m3 | mass density ([2]; 318.2 K, Liquid, x1 = 0.101): 774 ± 10 kg/m3 | mass density ([2]; 321.2 K, Gas, x1 = 0.0225): 500 ± 10 kg/m3 | mass density ([2]; 323.2 K, Liquid, x1 = 0.0363): 582 ± 11 kg/m3 | mass density ([2]; 323.2 K, Liquid, x1 = 0.0488): 645 ± 10 kg/m3 | mass density ([2]; 323.2 K, Liquid, x1 = 0.0742): 711 ± 10 kg/m3 | mass density ([2]; 323.2 K, Liquid, x1 = 0.101): 755 ± 10 kg/m3 | mass density ([2]; 328.2 K, Liquid, x1 = 0.0488): 608 ± 10 kg/m3 | mass density ([2]; 328.2 K, Liquid, x1 = 0.0742): 685 ± 10 kg/m3 | mass density ([2]; 328.2 K, Liquid, x1 = 0.101): 733 ± 10 kg/m3 | mass density ([2]; 330.2 K, Gas, x1 = 0.0363): 527 ± 10 kg/m3 | mass density ([2]; 333.2 K, Gas, x1 = 0.0488): 570 ± 10 kg/m3 | mass density ([2]; 333.2 K, Liquid, x1 = 0.0742): 663 ± 10 kg/m3 | mass density ([2]; 333.2 K, Liquid, x1 = 0.101): 713 ± 10 kg/m3 | Critical density ([2]; Liquid, x1 = 0.0211): 504 ± 15 kg/m3 | Critical density ([2]; Liquid, x1 = 0.0384): 546 ± 16 kg/m3 | Critical density ([2]; Liquid, x1 = 0.0512): 560 ± 17 kg/m3 | Critical density ([2]; Liquid, x1 = 0.0637): 590 ± 18 kg/m3
